Data taken from ChEMBL document CHEMBL1148086, “Isolation of the furan fatty acid, (8Z,11Z,14Z,17Z)-3,6-epoxyeicos-3,5,8,11,14,17-hexenoic acid from the New Zealand sponge Hymeniacidon hauraki” (J Nat Prod, 1994).
Converted amounts (≈) assume the structure as drawn. The source made the active and inactive calls. The calls are words filed in the database; no cut-off is given here.

Tests used:
P388 = assay: Cytotoxicity against mouse P388 cells after 48 hrs by SRB assay; assay type: functional, cell-based
Human alphaherpesvirus 1 = assay: Antiviral activity against Herpes simplex virus type 1 in african green monkey BSC1 cells after 24 hrs; assay type: functional, organism-based
Poliovirus 1 = assay: Antiviral activity against Polio virus type 1 in african green monkey BSC1 cells after 24 hrs; assay type: functional, organism-based
[1] = Cytotoxicity against african green monkey BSC1 cells after 24 hrs; assay type: cell-based; settings: chlorocebus aethiops, bsc-1, 24 h

CC/C=C\C/C=C\C/C=C\C/C=C\Cc1ccc(CC(=O)O)o1
IC50 (P388; Mus musculus, P388, 48 h, read-out: IC50): 13.4 µg/mL (≈ 42.6 µM)
Activity (Human alphaherpesvirus 1; BSC-1): Active
Activity (Poliovirus 1; BSC-1): Active
Activity [1]: 2 mm

CC/C=C\C/C=C\C/C=C\C/C=C\Cc1ccc(CC(=O)OC)o1
IC50 (P388; p388): Not Active
IC50 (Human alphaherpesvirus 1; bsc-1): Not Active
IC50 (Poliovirus 1; bsc-1): Not Active
Activity [1]: Not Active
